For seven molecules, nerve-specificity and logD results are on record in patent US12605468B2, “Oxazine-based fluorophore compounds for nerve-specific imaging” (Oregon Health & Science University, priority 2020, dated 2026).

In one data set the test system is nerve.
Test: not given
The note with it: Park et al. Theranostics 4, 823-833 (2014); cited from earlier work.
On to `CC/N=c1/cc2oc3cc(NCC)c(C)cc3nc-2cc1C` [Oxazine 4], for which the nerve-specificity result is “high nerve-specificity”.

Test system in the next data set: not listed separately
The data set is described as follows: Experimental LogD measurement (1-octanol / PBS buffer partition, absorbance readout). To be noted: pH 7.4, room temperature, read-out: Log D7.4. Type of data set: physicochemical. As for the experimental part: Experimental LogD measurements. Each screening candidate was dissolved in DMSO at a concentration of 10 mM. The stock solution was sampled (2 μL) and added to a 1 mL mixture of 1-octanol and PBS buffer (equal volume). The solution was then vortexed for 30 mins at room temperature before centrifuged at 13,000 rpm for 5 minutes. The PBS buffer and 1-octanol layers were separated and measured for absorbance using a SpectraMax M5 spectrometer with a Microplate reader (Molecular Devices, Sunnyvale, CA). Sample concentration in each phase was then calculated using Beer's Law plots of absorbance versus concentration. The experimental LogD value for each screening candidates was calculated using the equation below.
Turning to `c1cc2nc3ccc(=[N+]4CCC4)cc-3oc2cc1N1CCC1` [LGW14-53, 1-(7-(azetidin-1-yl)-3H-phenoxazin-3-ylidene)azetidin-1-ium], the logD turned out to be 0.3.

Turning to `CC/[N+](C)=c1\ccc2nc3ccc(N4CCC4)cc3oc-2c1` [LGW14-51, (E)-N-(7-(azetidin-1-yl)-3H-phenoxazin-3-ylidene)-N-methylethanaminium], the logD is 0.5.

For `c1cc2nc3ccc(=[N+]4CCC4)cc-3oc2cc1N1CCCC1` [LGW14-83, 1-(7-(pyrrolidin-1-yl)-3H-phenoxazin-3-ylidene)azetidin-1-ium], the logD was 0.5.

With `CN1CCOc2cc3nc4ccc(=[N+]5CCC5)cc-4oc3cc21` [LGW14-47, 1-(4-methyl-3,4-dihydro-[1,4]oxazino[2,3-b]phenoxazin-8(2H)-ylidene)azetidin-1-ium], the logD was 0.1.

For `CCN(CC)c1ccc2nc3ccc(=[N+]4CCC4)cc-3oc2c1` [LGW13-79, 1-(7-(diethylamino)-3H-phenoxazin-3-ylidene)azetidin-1-ium], the logD is 0.8.

With `CCN1CCOc2cc3nc4ccc(=[N+]5CCC5)cc-4oc3cc21` [LGW14-42, 1-(4-ethyl-3,4-dihydro-[1,4]oxazino[2,3-b]phenoxazin-8(2H)-ylidene)azetidin-1-ium], the logD was found to be 0.5.
